The conditions of data set [1]: human, in vivo; cited from earlier work.
For data set [2], the system named is Pneumocystis carinii pneumonia. To be noted: AIDS patients; Wofsy, Antimicrobial Agents Annual 1986; cited from earlier work.
A short description of the next data set: Water-solubility. Type of data set: physicochemical. To be noted: as compared with the corresponding compound wherein R13 is hydroxy.
The subject of the next data set is Pneumocystis carinii. The data set is described as follows: Activity against Pneumocystis carinii: treatment of latent infection in dexamethasone-treated rats. It counts as in vivo. To be noted: weeks 5-7; for SCORE 2 (number of rats): 2+: focal areas of pneumonitis surrounded by 10 to 25 h.p.f. of normal lung; for SCORE 3 (number of rats): 3+: lung diffusely and extensively involved; for SCORE 4 (number of rats): score 4 not defined; for SCORE 0 (number of rats): score none: no organism seen; for SCORE 1 (number of rats): 1+: cysts sparsely distributed, less than one per 25 h.p.f. As for the experimental part:
Groups of 10 rats were treated with dexamethasone to allow latent Pneumocystis carinii infection to develop. Tetracycline was also administered to protect against bacterial infections. […] In parallel with each test compound, Celacol was administered to one group of rats (also treated with dexamethasone and tetracycline) as a control. At the end of the test period the animals were sacrificed and autopsies carried out. The lungs were removed and the right lung bisected. An imprint was made onto microscope slides and stained with toluidine blue. One half of the lung was placed in formalin, processed in paraffin blocks, sectioned and stained by the Gomori methanamine silver nitrate method. After autopsy the extent of P. carinii pneumonitis was scored under coded study as none if no organism seen; 1+ if P. carinii cysts seen sparsely distributed with less than one per 25 high power field (h.p.f.); 2+ if focal areas of P. carinii pneumonitis surrounded by 10 to 25 h.p.f. of normal lung and 3+ if lung diffusely and extensively involved with organisms in almost all h.p.f.s.

As to `N=C(N)c1ccc(OCCCCCOc2ccc(C(=N)N)cc2)cc1` [pentamidine], in data set [1], the “incidence of adverse reactions” value is given as “around 50%”. Moreover, the “% effective” value in data set [2] was 50-70%.

As for trimethoprim-sulphamethoxazole, the “% effective” value in data set [2] is 50-70%.

With `CC(=O)OC1=C([C@H]2CC[C@H](c3ccc(Cl)cc3)CC2)C(=O)c2ccccc2C1=O` [Example 5, 2-Acetoxy-3-[trans-4-(4-chlorophenyl)cyclohexyl]-1,4-naphthoquinone], in the data set “Water-solubility”, the water-solubility result is on record as “improved water-solubility”.

Take `O=C1C(Cl)=C(C2CCC(c3ccc(Cl)cc3)CC2)C(=O)c2ccccc21` (stereo not shown) [A, 2-[4-(4-chlorophenyl)cyclohexyl]-3-chloro-1,4-naphthoquinone]: in the data set with Pneumocystis carinii (25 mg/kg/day oral), the “% INFECTED” value is on record as 100%, the “NO. INFECTED/NO. EXAMINED” value is 14/14, the “SCORE 2 (number of rats)” value was found to be 6 and the “SCORE 3 (number of rats)” value came out at 3. For the same molecule, in the data set on Pneumocystis carinii (25 mg/kg/day oral), the “SCORE 4 (number of rats)” value turned out to be 0 and the “SCORE 0 (number of rats)” value was 0. In addition, in the data set with Pneumocystis carinii (50 mg/kg/day oral), the “% INFECTED” value worked out at 100%, the “NO. INFECTED/NO. EXAMINED” value was 15/15, the “SCORE 1 (number of rats)” value amounted to 8 and the “SCORE 2 (number of rats)” value came to 5. Also, in the data set on Pneumocystis carinii (50 mg/kg/day oral), the “SCORE 3 (number of rats)” value was determined as 2, the “SCORE 4 (number of rats)” value came to 0 and the “SCORE 0 (number of rats)” value was determined as 0. In addition, in the data set on Pneumocystis carinii (100 mg/kg/day oral), the “% INFECTED” value was found to be 73%, the “NO. INFECTED/NO. EXAMINED” value is on record as 11/15, the “SCORE 1 (number of rats)” value is listed as 6 and the “SCORE 2 (number of rats)” value amounted to 4. For the same molecule, in the data set with Pneumocystis carinii (100 mg/kg/day oral), the “SCORE 3 (number of rats)” value is reported as 1, the “SCORE 4 (number of rats)” value is recorded as 0 and the “SCORE 0 (number of rats)” value is 4. Further, the “SCORE 1 (number of rats)” value in the data set with Pneumocystis carinii (oral) came to 5.

Regarding `CC(C)(C)C1CCC(CC2=C(O)C(=O)c3ccccc3C2=O)CC1` (stereo not shown) [C, 2-(4-t-butylcyclohexylmethyl)-3-hydroxy-1,4-naphthoquinone], in the data set with Pneumocystis carinii (25 mg/kg/day oral), the “% INFECTED” value is recorded as 93%, the “NO. INFECTED/NO. EXAMINED” value is 13/14, the “SCORE 2 (number of rats)” value stood at 2 and the “SCORE 3 (number of rats)” value was determined as 4. Also, in the data set on Pneumocystis carinii (25 mg/kg/day oral), the “SCORE 4 (number of rats)” value is 4 and the “SCORE 0 (number of rats)” value was determined as 1. In the data set with Pneumocystis carinii (50 mg/kg/day oral), the “% INFECTED” value amounted to 100%, the “NO. INFECTED/NO. EXAMINED” value was 14/14, the “SCORE 1 (number of rats)” value was determined as 2 and the “SCORE 2 (number of rats)” value stood at 6. Moreover, in the data set on Pneumocystis carinii (50 mg/kg/day oral), the “SCORE 3 (number of rats)” value was determined as 4, the “SCORE 4 (number of rats)” value is 2 and the “SCORE 0 (number of rats)” value amounted to 0. Also, in the data set on Pneumocystis carinii (100 mg/kg/day oral), the “% INFECTED” value is reported as 92%, the “NO. INFECTED/NO. EXAMINED” value is reported as 12/13, the “SCORE 1 (number of rats)” value stood at 4 and the “SCORE 2 (number of rats)” value is listed as 2. In the data set with Pneumocystis carinii (100 mg/kg/day oral), the “SCORE 3 (number of rats)” value was 6, the “SCORE 4 (number of rats)” value was determined as 0 and the “SCORE 0 (number of rats)” value was 1. For the same molecule, the “SCORE 1 (number of rats)” value in the data set with Pneumocystis carinii (oral) was 3.

Regarding `CC(C)(C)C1CCC(C2=C(O)C(=O)c3ccccc3C2=O)CC1` (stereo not shown) [Compound B, 2-(4-t-butylcyclohexyl)-3-hydroxy-1,4-naphthoquinone], in the data set on Pneumocystis carinii (25 mg/kg/day oral), the “% INFECTED” value is recorded as 100%, the “NO. INFECTED/NO. EXAMINED” value is on record as 15/15, the “SCORE 2 (number of rats)” value worked out at 7 and the “SCORE 3 (number of rats)” value amounted to 1. Moreover, in the data set with Pneumocystis carinii (25 mg/kg/day oral), the “SCORE 4 (number of rats)” value is given as 0 and the “SCORE 0 (number of rats)” value worked out at 0. In the data set with Pneumocystis carinii (50 mg/kg/day oral), the “% INFECTED” value stood at 93%, the “NO. INFECTED/NO. EXAMINED” value is recorded as 13/14, the “SCORE 1 (number of rats)” value worked out at 8 and the “SCORE 2 (number of rats)” value came out at 4. Further, in the data set with Pneumocystis carinii (50 mg/kg/day oral), the “SCORE 3 (number of rats)” value is given as 1, the “SCORE 4 (number of rats)” value is 0 and the “SCORE 0 (number of rats)” value came to 1. Also, in the data set with Pneumocystis carinii (100 mg/kg/day oral), the “% INFECTED” value came to 80%, the “NO. INFECTED/NO. EXAMINED” value is recorded as 12/15, the “SCORE 1 (number of rats)” value is 8 and the “SCORE 2 (number of rats)” value is 3. In the data set on Pneumocystis carinii (100 mg/kg/day oral), the “SCORE 3 (number of rats)” value amounted to 0, the “SCORE 4 (number of rats)” value was found to be 1 and the “SCORE 0 (number of rats)” value turned out to be 3. Moreover, the “SCORE 1 (number of rats)” value in the data set on Pneumocystis carinii (oral) is given as 7.

These data come from US5310762A, “Medicaments” (Burroughs Wellcome Co., priority 1988, dated 1994).
